pIC50: −log10 of the molar value.

myeloperoxidase (MPO), sequence (P05164 49-745): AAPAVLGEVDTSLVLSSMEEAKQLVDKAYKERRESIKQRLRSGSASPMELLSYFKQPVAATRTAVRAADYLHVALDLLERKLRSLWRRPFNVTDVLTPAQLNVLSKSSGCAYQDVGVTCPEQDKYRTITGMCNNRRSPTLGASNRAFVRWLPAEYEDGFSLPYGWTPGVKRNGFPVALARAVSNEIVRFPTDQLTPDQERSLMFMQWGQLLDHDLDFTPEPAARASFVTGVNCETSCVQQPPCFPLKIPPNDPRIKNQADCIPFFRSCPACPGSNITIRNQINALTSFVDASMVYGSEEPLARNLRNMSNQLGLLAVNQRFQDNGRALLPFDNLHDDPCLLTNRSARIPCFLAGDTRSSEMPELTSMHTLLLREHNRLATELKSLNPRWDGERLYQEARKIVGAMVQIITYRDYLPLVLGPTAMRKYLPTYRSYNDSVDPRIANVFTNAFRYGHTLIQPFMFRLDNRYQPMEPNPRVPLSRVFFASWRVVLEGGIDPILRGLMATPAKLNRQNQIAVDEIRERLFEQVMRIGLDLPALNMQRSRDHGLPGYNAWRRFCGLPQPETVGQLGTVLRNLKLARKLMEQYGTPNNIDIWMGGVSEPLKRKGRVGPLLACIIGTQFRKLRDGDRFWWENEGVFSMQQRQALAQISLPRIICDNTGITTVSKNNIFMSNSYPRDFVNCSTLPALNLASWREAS

This test concerns the target myeloperoxidase (MPO) (Homo sapiens (Human), UniProt P05164). Nature of the test: MPO chlorination assay (APF). The class given is biochemical. To be noted: MPO chlorination assay, ranges given; read-out: MPO chlorination assay IC50. As to the method:
MPO chlorination activity was measured in 100 mM KPi (pH 7.4) by utilizing the non-fluorescent reagent Aminophenyl fluorescein (APF, Invitrogen catalog #A36003). APF is cleaved by (—OCl) to yield the fluorescent compound fluorescein. Reactions were carried out in 50 μL total volume by adding a 25 μL mixture of 200 pM myeloperoxidase and 120 mM NaCl to 100 nL inhibitor in 100% DMSO in a 384 well, non-binding surface clear bottom plate (CORNING® #3655). Enzyme, inhibitor, and chloride were preincubated for ten minutes at rt.
After the ten minute preincubation, 25 μL of an APF mixture containing […], 120 mM NaCl and 10 μM H2O2 was added to the plate using the internal dispensing system of a Hammatsu FDSS 6000. Kinetic determinations were carried out immediately on the FDSS 6000 (3 minute kinetic read, 1 read every second, ex: 485 nm, em: 535 nm). IC50 values for inhibitors were calculated by taking the slope of the linear portion of the kinetic measurement (20 seconds to ˜80-120 secs). […]
[formula] where A=minimal Y value (activity level of inhibited sample), B=maximal Y value (activity level of uninhibited sample), C=Log IC50, D=Hill Slope, x=concentration of inhibitor. EPX Bromination Assay
Turning to `CN(C)CCNC(=O)c1cccc(-n2cc(CSc3cc(N)nc4[nH]nnc34)c(C(F)F)n2)c1` [Example 149, 3-(4-(((5-amino-3H-[1,2,3]triazolo[4,5-b]pyridin-7-yl)thio)methyl)-3-(difluoromethyl)-1H-pyrazol-1-yl)-N-(2-(dimethylamino)ethyl) benzamide], the pIC50 is 6.70 to 7.22.
The result for `CC(Sc1cc(N)nc2[nH]nnc12)c1cccnc1` (centres unmarked) [Example 107, 7-((1-(pyridin-3-yl)ethyl)thio)-3H-[1,2,3]triazolo[4,5-b]pyridin-5-amine] reads 6.70 to 7.22.
The figure for `Nc1cc(SCc2cccc(CN3CCCC3)c2)c2nn[nH]c2n1` [Example 15, 7-((3-(Pyrrolidin-1-ylmethyl)benzyl)thio)-3H-[1,2,3]triazolo[4,5-b]pyridin-5-amine] is at least 7.22.
For the compound `N#Cc1ccc(Cl)cc1CSc1cc(N)nc2[nH]nnc12` [Example 73, 2-(((5-amino-3H-[1,2,3]triazolo[4,5-b]pyridin-7-yl)thio)methyl)-4-chlorobenzonitrile], the pIC50 is 6.70 to 7.22.
In the case of `N#Cc1ccc(OC2CC2)cc1CSc1cc(N)nc2[nH]nnc12` [Example 110, 2-(((5-amino-3H-[1,2,3]triazolo[4,5-b]pyridin-7-yl)thio)methyl)-4-cyclopropoxybenzonitrile], the pIC50 was 6.70 to 7.22.
On to `Nc1cc(SCc2cn(-c3ccccc3)nc2C(F)F)c2nn[nH]c2n1` [Example 138, 7-(((3-(difluoromethyl)-1-phenyl-1H-pyrazol-4-yl)methyl)thio)-3H-[1,2,3]triazolo[4,5-b] pyridin-5-amine], for which the pIC50 is at least 7.22.
Regarding `Nc1nc(SCc2ccccc2-n2cccn2)c2nn[nH]c2n1` [Example 158, 7-((2-(1H-pyrazol-1-yl)benzyl)thio)-3H-[1,2,3] triazolo[4,5-d]pyrimidin-5-amine], the pIC50 was 6.00 to 6.70.
Regarding `Nc1cc(SCc2cnn(Cc3ccccc3)c2)c2nn[nH]c2n1` [Example 32, 7-(((1-benzyl-1H-pyrazol-4-yl)methyl)thio)-3H-[1,2,3] triazolo[4,5-b]pyridin-5-amine], the pIC50 is 6.70 to 7.22.
Take `Nc1cc(SCc2ccccc2CS(=O)(=O)c2ccccc2)c2nn[nH]c2n1` [Example 35, 7-((2-((phenylsulfonyl)methyl)benzyl)thio)-3H-[1,2,3]triazolo[4,5-b]pyridin-5-amine]: the pIC50 is 6.70 to 7.22.
The result for `Nc1cc(SCc2c(Cl)ccnc2Cl)c2nn[nH]c2n1` [Example 48, 7-(((2,4-dichloropyridin-3-yl)methyl)thio)-3H-[1,2,3] triazolo[4,5-b]pyridin-5-amine] reads 6.70 to 7.22.
In the case of `N#Cc1cc(Cl)ccc1CSc1cc(N)nc2[nH]nnc12` [Example 74, 2-(((5-amino-3H-[1,2,3]triazolo[4,5-b]pyridin-7-yl)thio)methyl)-5-chlorobenzonitrile], the pIC50 is at least 7.22.
Regarding `Cc1nn(-c2ccccc2)nc1CSc1cc(N)nc2[nH]nnc12` [Example 65, 7-(((5-methyl-2-phenyl-2H-1,2,3-triazol-4-yl)methyl)thio)-3H-[1,2,3]triazolo[4,5-b]pyridin-5-amine], the pIC50 is 6.70 to 7.22.
The result for `N#Cc1ccc(F)cc1CSc1cc(N)nc2[nH]nnc12` [Example 20, 2-(((5-amino-3H-[1,2,3]triazolo[4,5-b]pyridin-7-yl)thio)methyl)-4-fluorobenzonitrile] reads at least 7.22; that for `CS(=O)(=O)c1cccc(Cl)c1CSc1cc(N)nc2[nH]nnc12` [Example 102, 7-((2-chloro-6-(methylsulfonyl)benzyl)thio)-3H-[1,2,3]triazolo[4,5-b]pyridin-5-amine], 6.70 to 7.22; that for `Cn1nc(C2CC2)cc1CSc1cc(N)nc2[nH]nnc12` [Example 100, 7-(((3-cyclopropyl-1-methyl-1H-pyrazol-5-yl)methyl)thio)-3H-[1,2,3]triazolo[4,5-b]pyridin-5-amine], 6.70 to 7.22.
The result for `Cc1nn(Cc2ccccc2)c(Cl)c1CSc1cc(N)nc2[nH]nnc12` [Example 76, 7-(((1-benzyl-5-chloro-3-methyl-1H-pyrazol-4-yl)methyl)thio)-3H-[1,2,3] triazolo[4,5-b]pyridin-5-amine] reads 6.70 to 7.22.
The figure for `Nc1cc(SCc2cn(-c3ccncc3)nc2C(F)(F)F)c2nn[nH]c2n1` [Example 137] is at least 7.22.
With `CN(C)CCNC(=O)c1ccccc1-n1cc(CSc2cc(N)nc3[nH]nnc23)c(C(F)F)n1` [Example 151, 2-(4-(((5-amino-3H-[1,2,3]triazolo[4,5-b]pyridin-7-yl)thio)methyl)-3-(difluoromethyl)-1H-pyrazol-1-yl)-N-(2-(dimethylamino)ethyl) benzamide], the pIC50 is at least 7.22.
As for `N#Cc1cccc(-n2cccn2)c1CSc1cc(N)nc2[nH]nnc12` [Example 129, 2-(((5-Amino-3H-[1,2,3]triazolo[4,5-b]pyridin-7-yl)thio)methyl)-3-(1H-pyrazol-1-yl)benzonitrile], the pIC50 was 6.00 to 6.70.
The result for `Nc1cc(SCc2ccccc2Cl)c2nn[nH]c2n1` [Example 4, 7-((2-chlorobenzyl)thio)-3H-[1,2,3]triazolo [4,5-b]pyridin-5-amine] reads at least 7.22; that for `N#Cc1ccc(CSc2cc(N)nc3[nH]nnc23)c(Cl)c1` [Example 124, 4-(((5-amino-3H-[1,2,3]triazolo[4,5-b]pyridin-7-yl)thio)methyl)-3-chlorobenzonitrile], 6.00 to 6.70.
With `N#Cc1cc(Br)ccc1CSc1cc(N)nc2[nH]nnc12` [Example 21, 2-(((5-amino-3H-[1,2,3]triazolo[4,5-b]pyridin-7-yl)thio)methyl)-5-bromobenzonitrile], the pIC50 was 6.70 to 7.22.
As for `CC(Sc1cc(N)nc2[nH]nnc12)c1ccccc1C(F)(F)F` (centres unmarked) [Example 30, 7-((1-(2-(trifluoromethyl)phenyl)ethyl)thio)-3H-[1,2,3]triazolo[4,5-b]pyridin-5-amine], the pIC50 was 6.70 to 7.22.
Regarding `N#Cc1cccc(Cl)c1CSc1cc(N)nc2[nH]nnc12` [Example 117, 2-(((5-amino-3H-[1,2,3]triazolo[4,5-b]pyridin-7-yl)thio)methyl)-3-chlorobenzonitrile], the pIC50 is at least 7.22.
As to `CN(C)c1cc(-n2cc(CSc3cc(N)nc4[nH]nnc34)c(C(F)(F)F)n2)ccn1` [Example 141, 7-(((1-(2-(dimethylamino)pyridin-4-yl)-3-(trifluoromethyl)-1H-pyrazol-4-yl)methyl)thio)-3H-[1,2,3]triazolo [4,5-b]pyridin-5-amine], the pIC50 is at least 7.22.
As to `Nc1cc(SCc2ccc(Cl)cc2)c2nn[nH]c2n1` [Example 8, 7-((4-chlorobenzyl)thio)-3H-[1,2,3]triazolo [4,5-b]pyridin-5-amine], the pIC50 is at least 7.22.
As for `N#Cc1ncccc1CSc1cc(N)nc2[nH]nnc12` [Example 108, 3-(((5-amino-3H-[1,2,3]triazolo[4,5-b]pyridin-7-yl)thio)methyl)picolinonitrile], the pIC50 was 6.70 to 7.22.
In the case of `Cc1nn(C2CC2)c(C)c1CSc1cc(N)nc2[nH]nnc12` [Example 81, 7-(((1-cyclopropyl-3,5-dimethyl-1H-pyrazol-4-yl)methyl)thio)-3H-[1,2,3] triazolo[4,5-b]pyridin-5-amine], the pIC50 is 6.70 to 7.22.
The figure for `Nc1cc(SCc2cc(Cl)ccc2S(=O)(=O)Cc2ccccc2)c2nn[nH]c2n1` [Example 61, 7-((2-(benzylsulfonyl)-5-chlorobenzyl)thio)-3H-[1,2,3]triazolo[4,5-b]pyridin-5-amine] is 6.70 to 7.22.

One may read the pIC50 as −log10 of the IC50, conventionally taken in molar units.

(Values after patent publication US10981879B2, “Thioether triazolopyridine and triazolopyrimidine inhibitors of myeloperoxidase” (BRISTOL-MYERS SQUIBB COMPANY, priority 2014, dated 2021).)
